In publication PMC8175350, “Drug repurposing screens identify chemical entities for the development of COVID-19 interventions” (Nature Communications, 2021):
Like-named read-outs stand apart in the source and are kept apart here.

Key:
SARS-CoV-2 [1] = assay: microbe, parasite or virus in culture; format: cell-based; settings: for EC50: Severe acute respiratory syndrome coronavirus 2, Calu-3, detail block, read-out: Calu-3 CoV-2 EC50 GeoMean; for Emax: Severe acute respiratory syndrome coronavirus 2, Calu-3, 48 h, curve plateau at infinite concentration, read-out: Calu-3 CoV-2 Sinf Average
HeLa-ACE2 cells [2] = assay: cells; settings: Homo sapiens; for Emax: HeLa-ACE2, 24 h, read-out: HeLa-ACE2 cell count Sinf Average; for EC50: HeLa-ACE2, read-out: HeLa-ACE2 cell count EC50 GeoMean, detail block
HEK293T [3] = settings: human
[4] = Uninfected HeLa-ACE2 24 h live/dead cytotoxicity counter screen; format: cell-based, human; settings: human, uninfected HeLa-ACE2 cells, detail block; read-out: HeLa-ACE2 uninfected cytotoxicity CC50 GeoMean
HeLa-ACE2 cells [5] = assay: as above; format: cell-based, human; settings: curve plateau at infinite concentration
SARS-CoV-2 [6] = assay: microbe, parasite or virus in culture; format: cell-based; settings: for Emax: Severe acute respiratory syndrome coronavirus 2, HeLa-ACE2, 24 h, curve plateau at infinite concentration, read-out: HeLa-ACE2 CoV-2 Sinf Average; for EC50: Severe acute respiratory syndrome coronavirus 2, HeLa-ACE2, detail block, read-out: HeLa-ACE2 CoV-2 EC50 GeoMean
HeLa-ACE2 cells [7] = assay: cells; format: cell-based, human; settings: Homo sapiens, HeLa-ACE2; read-out: HeLa-ACE2 TOA cell count EC50 GeoMean
HepG2 [8] = settings: human
in vitro = settings: human, Calu-3 uninfected cytotoxicity CC50 GeoMean
Calu-3 cells [9] = assay: cells; settings: Homo sapiens; for Emax: Calu-3, 48 h, read-out: Calu-3 cell count Sinf Average; for EC50: Calu-3, read-out: Calu-3 cell count EC50 GeoMean, detail block
SARS-CoV-2 [10] = assay: microbe, parasite or virus in culture; format: cell-based; settings: for EC50: Severe acute respiratory syndrome coronavirus 2, HeLa-ACE2, detail block, read-out: HeLa-ACE2 TOA CoV-2 EC50 GeoMean; for Emax: Severe acute respiratory syndrome coronavirus 2, HeLa-ACE2, 10 h, curve plateau at infinite concentration, read-out: HeLa-ACE2 TOA CoV-2 Sinf Average
Calu-3 cells [11] = settings: for Calu-3 uninfected cytotoxicity Sinf Average: human, 48 h
SARS-CoV-2 [12] = format: cell-based; settings: combination with remdesivir
HepG2 [13] = assay: HepG2 72 h CellTiter-Glo cytotoxicity; settings: 72 h
[14] = HepG2 72 h CellTiter-Glo cytotoxicity; settings: human, HepG2 cells
[15] = HEK293T 72 h CellTiter-Glo cytotoxicity; settings: human, HEK293T cells
HEK293T [16] = assay: HEK293T 72 h CellTiter-Glo cytotoxicity; settings: 72 h
Calu-3 cells [17] = assay: Uninfected Calu-3 48 h Cell-Titer Glo cytotoxicity counter screen; settings: curve plateau at infinite concentration
[18] = TOA EC50 / HeLa-ACE2 SARS-CoV-2 EC50
[19] = selectivity index, uninfected Calu-3 CC50 / Calu-3 SARS-CoV-2 EC50
[20] = selectivity index, uninfected HeLa-ACE2 CC50 / SARS-CoV-2 EC50

Row | SMILES | EC50 (SARS-CoV-2 [1]) [µM] | EC50 (HeLa-ACE2 cells [2]) [µM] | HEK293T 72-hour cytotoxicty Sinf Average (HEK293T [3]; 72 h) [%] | CC50 at 24 h [4] [µM] | HeLa-ACE2 uninfected cytotoxicity Sinf Average (HeLa-ACE2 cells [5]) [%] | HeLa-ACE2 SI (SARS-CoV-2 [6]) | Emax (SARS-CoV-2 [6]) [%] | EC50 (SARS-CoV-2 [6]) [µM] | EC50 (HeLa-ACE2 cells [7]) [µM] | HepG2 72-hour cytotoxicity Sinf Average (HepG2 [8]; 72 h) [%] | CC50 at 48 h (in vitro) [µM] | Emax (Calu-3 cells [9]) [%] | EC50 (Calu-3 cells [9]) [µM] | EC50 (SARS-CoV-2 [10]) [µM] | TOA:HeLa-ACE2 EC50 Ratio (SARS-CoV-2 [10]; [18]) | uninfected Calu-3 CC50 (Calu-3 cells [11]) | Emax (SARS-CoV-2 [1]) [%] | Emax (SARS-CoV-2 [10]) [%] | Calu-3 uninfected cytotoxicity Sinf Average (Calu-3 cells [11]) [%] | HeLa-ACE2 SI (SARS-CoV-2 [6]; [20]) | also measured
1 | N#Cc1c(N)nc(N)nc1N[C@H](c1nc2c(F)ccc(Cl)c2c(=O)n1-c1cccnc1)C1CC1 [GS-9901] | > 9.98 | > 9.59 | -97 | > 31.1 | -100 | > 8.17 | 100 | 3.81 | > 9.59 | -100 | > 29.9 | -100 | > 9.98 | > 9.59 | 2.519 | > 29.867 ×÷ 1.001 (n=3) μM |  |  |  |  | Emax (HeLa-ACE2 cells [2]): 100%
2 | COC(CNCC(C)C)COc1c(C)csc1C(=O)CCc1ccccc1 (stereo not drawn) [LG-6-101] | > 9.98 | > 9.59 | -100 | > 35.6 | -100 |  | 100 | 3.46 | > 9.59 | -100 | > 29.1 | 100 | > 9.98 | > 9.18 | 2.655 | > 29.079 ×÷ 1.048 (n=3) μM | 83 | 100 | -100 |  | Calu-3 SI (SARS-CoV-2 [1]; [19]): 2.91
3 | CN1CCN(c2ccc(C(=O)NCc3cnc(C#N)nc3NCC(C)(C)C)cc2)CC1 [Dutacatib] | > 9.98 | > 9.59 | -100 | > 36.1 | -100 |  | 101 | 2.69 | > 9.59 | -100 | > 29.9 | 100 | > 9.98 | > 9.36 | 3.480 | > 29.867 ×÷ 1.001 (n=3) μM | 96 | 100 | -100 | > 13.43 | HeLa-ACE2 synergy score with remdesivi (SARS-CoV-2 [12]): 2.955 δ
4 | COc1ccc2cc1Oc1ccc(cc1)C[C@H]1c3c(cc4c(c3Oc3cc5c(cc3OC)CCN(C)[C@@H]5C2)OCO4)CCN1C [Cepharanthine] | > 9.98 | > 9.59 | -103 | > 25.4 | -100 | > 25.76 | 98 | 0.988 | > 9.59 | -100 | > 27.8 |  | > 9.98 | > 9.5 | 9.613 | > 27.816 ×÷ 1.096 (n=3) μM |  | 100 | -100 |  | Calu-3 SI (SARS-CoV-2 [1]): 2.79
5 | N#Cc1ccc2c(c1)[C@H]1CN(CCCCNC(=O)c3ccc(-c4ccccc4)cc3)C[C@@H]1CO2 [S-33084] | > 9.98 | > 9.59 | -100 | > 24.8 | -100 |  | 100 | 3.91 | > 9.59 | -100 | > 22.8 |  | > 9.98 | 3.93 | 1.005 | > 22.75 ×÷ 1.601 (n=3) μM |  | 100 | -100 | > 6.34 | Calu-3 SI (SARS-CoV-2 [1]; [19]): 2.28
6 | CCN(CC)Cc1cc(Nc2ccnc3cc(Cl)ccc23)ccc1O [Amodiaquine] | > 9.85 | > 0.865 |  | > 39.8 | -89 |  | 102 | 1.19 | > 9.59 |  |  |  | > 9.85 | > 9.59 |  |  |  |  |  | > 33.48 | Emax (HeLa-ACE2 cells [2]): -26%; HepG2 72-hour cytotoxicity Sinf Average (HepG2 [13]): -80%; CC50 at 72 h [14]: 3.76 µM; TOA:HeLa-ACE2 EC50 Ratio (SARS-CoV-2 [10]): 8.060; CC50 at 72 h [15]: 10 µM; HEK293T 72-hour cytotoxicty Sinf Average (HEK293T [16]): -87%
7 | CCN(CC)CCCC(C)Nc1ccnc2cc(Cl)ccc12 (stereo not drawn) [Chloroquine, DualTPharma, Chloroquine] | > 9.85 | > 9.59 |  | > 39.8 | -100 |  | 107 | 0.9 | > 9.59 |  |  |  | > 9.85 | > 9.59 |  |  |  |  |  |  | HEK293T 72-hour cytotoxicty Sinf Average (HEK293T [3]): -100%; HepG2 72-hour cytotoxicity Sinf Average (HepG2 [8]): -100%
8 | O=C(CCCN1CCN(c2ccc(F)cc2)CC1)NC1c2ccccc2CSc2ccccc21 (stereo not drawn) [Monatepil] | > 9.98 | > 9.6 | -46 | > 39 | -100 |  | 100 | > 7.79 | > 9.61 |  | > 29.9 | -100 | > 9.98 | 5.71 | 0.732 | > 29.9 ×÷ 1.002 (n=4) μM | 100 | 100 | -100 | > 5.01 | 
9 | CN1[C@@H]2CC[C@H]1C[C@@H](N1Cc3ccc4ccccc4c3C1=O)C2 [CR-3124] | > 9.98 | > 9.59 |  | > 39.8 | -100 | > 6.67 | 100 | 5.97 | > 9.59 |  |  |  | > 9.98 | > 9.59 | 1.607 |  |  | 100 |  |  | HepG2 72-hour cytotoxicity Sinf Average (HepG2 [13]): -100%; Calu-3 uninfected cytotoxicity Sinf Average (Calu-3 cells [17]): -100%; CC50 (in vitro; detail block): > 29.9 µM; HEK293T 72-hour cytotoxicty Sinf Average (HEK293T [16]): -100%
